Results reported in patent publication US20240390298A1, “CYCLOHEXYL BETA-HYDROXY ALKYL AMINES AND MEDICAL USES THEREOF” (ATROGI AB, priority 2021, published 2024).
Structures can show the parent of a compound that is named as a salt.

Key:
L6-myotubes [1] = experiment: Measurement of intracellular cAMP levels in differentiated L6 cells (alpha screen cAMP kit), compared to isoproterenol; format: cell-based; conditions: Rattus norvegicus, L6, 0.25 h, agonist 1×10^−5 M, 15 min, read-out: Biological example 2: intracellular cAMP levels, activity compared to that of isoproterenol
How it was run: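 L6 myoblasts were differentiated into myotubes over 7 days in 2% FBS, then serum-starved overnight. Agonist at 1×10^−5 M final was applied for 15 min in HBSS with 1% BSA, 5 mM HEPES and 1 mM IBMX, pH 7.4. After ethanol extraction and lysis, cAMP was quantified by AlphaScreen, with activity expressed relative to isoproterenol.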

L6-myotubes [2] = experiment: Glucose uptake in differentiated L6-myotubes (3H-2-deoxyglucose), compared to isoproterenol; format: cell-based; conditions: agonist 1×10^−5 M, 50 nM 3H-2-deoxyglucose; for Emax at 10 µM: read-out: Biological example 1: glucose uptake, activity compared to that of isoproterenol
How it was run: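 Serum-starved differentiated L6 myotubes stimulated with agonist at 1×10^−5 M for 1 h 40 min, re-dosed in glucose-free medium for 20 min, then given 50 nM ^3H-2-deoxyglucose for 10 min. Uptake read by β-counting of NaOH lysates; activity expressed relative to isoproterenol.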

| SMILES | Emax at 10 µM (L6-myotubes [1]) | Biological example 1: glucose uptake, activity compared to that of isoproterenol (L6-myotubes [2]) | Emax at 10 µM (L6-myotubes [2]) |
| --- | --- | --- | --- |
| CC(=O)N(C)[C@H]1CC[C@H](CC(C)(C)NC[C@H](O)c2cncc(F)c2)CC1.Cl [Example 182, N-((1R,4r)-4-(2-(((R)-2-(5-Fluoropyridin-3-yl)-2-hydroxyethyl)amino)-2-methylpropyl)cyclohexyl)-N-methylacetamide] | 25 to 50% | + + + | – |
| CC(C)(NC[C@H](O)c1cccc(F)c1)[C@H]1CC[C@@H](OCC(=O)O)CC1 [Example 128, 2-(((1S,4s)-4-(2-(((R)-2-(3-Fluorophenyl)-2-hydroxyethyl)amino)propan-2-yl)cyclohexyl)oxy)acetic acid] | < 25% | + + | – |
| CO[C@H]1CC[C@H](CCNC[C@H](O)c2cncc(F)c2)CC1 [Example 12, (R)-1-(5-Fluoropyridin-3-yl)-2-((2-((1r,4R)-4-methoxycyclohexyl)ethyl)-amino)ethan-1-ol] | < 25% | + + | – |
| COC(=O)[C@H]1CC[C@H](CC(C)(C)NC[C@H](O)c2cncc(F)c2)CC1 [Example 108, Methyl (1R,4r)-4-(2-(((R)-2-(5-fluoropyridin-3-yl)-2-hydroxyethyl)amino)-2-methylpropyl)cyclohexane-1-carboxylate] | < 25% | + + | – |
| CC(C)(NC[C@H](O)c1cccc(F)c1)[C@H]1CC[C@H](OCc2ccccc2)CC1 [Example 37, (R)-2-((2-((1r,4R)-4-(Benzyloxy)cyclohexyl)propan-2-yl)amino)-1-(3-fluoro-phenyl)ethan-1-ol] | < 25% | + + | – |
| CCCS(=O)(=O)N[C@H]1CC[C@@H](CC(C)(C)NC[C@H](O)c2cncc(F)c2)CC1 [Example 198, N-((1S,4s)-4-(2-(((R)-2-(5-Fluoropyridin-3-yl)-2-hydroxyethyl)amino)-2-methylpropyl)cyclohexyl)propane-1-sulfonamide] | < 25% | + + + | – |
| O[C@@H](CNCCCC1CCC(OCc2ccccc2)CC1)c1cncc(F)c1 (stereo partly drawn) [Example 54, (R)-2-((3-((1r,4S)-4-(Benzyloxy)cyclohexyl)propyl)amino)-1-(5-fluoro-pyridin-3-yl)ethan-1-ol] | < 25% | – | 25 to 50% |
| CC(C)(C[C@H]1CC[C@@H](NC(=O)OC(C)(C)C)CC1)NC[C@H](O)c1cccc(F)c1 [Example 162, tert-Butyl ((1S,4s)-4-(2-(((R)-2-(3-fluorophenyl)-2-hydroxyethyl)amino)-2-methylpropyl)cyclohexyl)carbamate] | < 25% | + + + | – |
| CO[C@H]1CC[C@H](C(C)(C)NC[C@H](O)c2cccc(F)c2)CC1 [Example 7] | < 25% | + + + | – |
| CO[C@H]1CC[C@@H](CCCNC[C@H](O)c2cncc(F)c2)CC1 [Example 20, (R)-1-(5-Fluoropyridin-3-yl)-2-((3-((1s,4R)-4-methoxycyclohexyl)propyl)-amino)ethan-1-ol] | < 25% | + + + | – |
| CC(C)(C[C@H]1CC[C@H](NC(=O)OC(C)(C)C)CC1)NC[C@H](O)c1cccc(F)c1 [Example 153, tert-Butyl ((1R,4r)-4-(2-(((R)-2-(3-fluorophenyl)-2-hydroxyethyl)amino)-2-methylpropyl)cyclohexyl)carbamate] | 25 to 50% | + + + | – |
| CC(C)(C[C@H]1CC[C@@H](O)CC1)NC[C@H](O)c1cccc(F)c1.Cl [Example 49, (1S,4s)-4-(2-(((R)-2-(3-Fluorophenyl)-2-hydroxyethyl)amino)-2-methylpropyl)cyclohexan-1-ol hydrochloride] | < 25% | + + | – |
| CC(C)(C[C@H]1CC[C@@H](NC(=O)OC(C)(C)C)CC1)NC[C@H](O)c1cncc(F)c1 [Example 174, tert-Butyl ((1S,4s)-4-(2-(((R)-2-(5-fluoropyridin-3-yl)-2-hydroxyethyl)-amino)-2-methylpropyl)cyclohexyl)carbamate] | < 25% | + + + | – |
| CO[C@H]1CC[C@H](CCC(C)(C)NC[C@H](O)c2cccc(F)c2)CC1.Cl [Example 21, (R)-1-(3-Fluorophenyl)-2-((4-((1r,4S)-4-methoxycyclohexyl)-2-methyl-butan-2-yl)amino)ethan-1-ol hydrochloride] | < 25% | + + | – |
| CC(=O)N[C@H]1CC[C@@H](CC(C)(C)NC[C@H](O)c2cccc(C#N)n2)CC1 [Example 141, N-((1R,4s)-4-(2-(((S)-2-(6-Cyanopyridin-2-yl)-2-hydroxyethyl)amino)-2-methylpropyl)cyclohexyl)acetamide] | < 25% | + + + | – |
| CN([C@H]1CC[C@@H](CC(C)(C)NC[C@H](O)c2cccc(F)c2)CC1)S(C)(=O)=O.Cl [Example 181, N-((1S,4s)-4-(2-((®-2-(3-Fluorophenyl)-2-hydroxyethyl)amino)-2-methyl-propyl)cyclohexyl)-N-methylmethanesulfonamide hydrochloride] | < 25% | + + | – |
| CS(=O)(=O)N[C@H]1CC[C@H](CNC[C@H](O)c2cncc(F)c2)CC1 [Example 72, N-((1R,4r)-4-((((R)-2-(5-Fluoropyridin-3-yl)-2-hydroxyethyl)amino)methyl)-cyclohexyl)methanesulfonamide] | < 25% | – | 25 to 50% |
| O[C@@H](CNC[C@H]1CC[C@H](O)CC1)c1cncc(F)c1 [Example 32, (1R,4r)-4-((((R)-2-(5-Fluoropyridin-3-yl)-2-hydroxyethyl)amino)-methyl)cyclohexan-1-ol] | < 25% | – | < 25% |
| CC(C)(NC[C@H](O)c1cccc(F)c1)[C@H]1CC[C@@H](OCc2ccccc2)CC1 [Example 33, (R)-2-((2-((1s,4S)-4-(Benzyloxy)cyclohexyl)propan-2-yl)amino)-1-(3-fluorophenyl)ethan-1-ol] | < 25% | + + | – |
| CC(=O)N[C@H]1CC[C@@H](CNC[C@H](O)c2cccc(F)c2)CC1 [Example 73, N-((1S,4s)-4-((((R)-2-(3-Fluorophenyl)-2-hydroxyethyl)amino)-methyl)cyclohexyl)acetamide] | < 25% | + + | – |
| CC(=O)N[C@H]1CC[C@@H](CC(C)(C)NC[C@H](O)c2cccnc2C)CC1 [Example 143, N-((1S,4s)-4-(2-(((R)—H-hydroxy-2-(2-methylpyridin-3-yl)ethyl)amino)-2-methylpropyl)cyclohexyl)acetamide dihydrochloride] | < 25% | + + + | – |
| COC1CCC(CCC(C)(C)NC[C@H](O)c2cncc(F)c2)CC1 (stereo partly drawn) [Example 22, (R)-1-(5-Fluoropyridin-3-yl)-2-((4-((1r,4S)-4-methoxycyclohexyl)-2-methylbutan-2-yl)amino)ethan-1-ol dihydrochloride] | < 25% | – | 25 to 50% |
